Laboratory results from patent US6576671B1, “Aminotetralin derivatives for the therapy of cardiovascular diseases” (Chiese Farmaceutici S.p.A., priority 1999, dated 2003).

Key:
anesthetized rats = experiment: In vivo cardiovascular effects in anesthetized rats; design: species or system rat
Method: Male albino rats (Sprague Dawley, 350-400 g) were anesthetized by sodium pentobarbital (60 mg/kg) and maintained by i.v. infusion (6 mg/h). The trachea was cannulated to facilitate spontaneous respiration and body temperature was maintained at 37 C. Homoiothermic Blanket Control System (Harvard, England).
The right femoral artery was cannulated for arterial blood pressure measurement and left jugular vein or duodenum were cannulated for drug administration. Mean arterial pressure and heart rate were continuously monitored by pressure transducer and medium gain amplifier triggered by the ECG signal, respectively. […]
CHF 1035 was administered intraduodenally (1 mg/kg).
The response to […] was determined in the absence and in the presence of the selective β2-adrenoceptor antagonist ICI 118.551 (0.2 mg/kg i.v.) and the selective DA2-dopaminergic antagonist domperidone (0 3 mg/kg i.v.) both alone and in combination. The antagonists were administered 10 min before the i.d. drug administration.

[1] = system: patients with a moderate congestive heart failure (class NYHA II-III); experiment: Randomized double-blind study versus placebo, hemodynamic and neurohumoral parameters; assay type: in vivo, human
Method: In order to investigate the effects of the compound both on the hemodynamic parameters and the neurohumoral pattern, a randomized double-blind study versus placebo was carried out in 18 patients with a moderate congestive heart failure (class NYHA II-III).
Each patient received on 3 consecutive days 2 active doses of CHF 1035 and 1 placebo dose.
The following hemodynamic parameters were evaluated:
pulmonary capillary wedge pressure (PCWP) (mmHg);
cardiac index (CJ) (L/min/m^2);
stroke volume index (SVI) (ml/min/m^2);
systemic vascular resistance (SVR) (dyneseccm^−5);
mean blood pressure (BPm) (mmHg).
The evaluations were carried out by catheterization of the right heart (Swan-Ganz catheter), measuring the hemodynamic parameters of the tested medicament before administration or “pre-dose” (PD) and for the 300 subsequent minutes after the administration or “after-dose” (AD), every 20 minutes for the first 2 hours, then every 60 minutes.
To evaluate the effects of the compound on neurohormones, noradrenaline (NE) (pg/ml) and adrenalin (E) (pg/ml) plasmatic levels were further evaluated, before and 140 minutes after the administration of CHF 1035 and placebo, respectively.

[2] = Pharmacological and clinic pharmacological studies of diuresis; details: in vivo
α2-adrenergic receptors = experiment: α2-adrenergic activity in isolated neuronally-stimulated rat vas deferens
[3] = system: plasma and tissue esterases; experiment: Transformation into the desesterified form after administration; assay type: in vivo
[4] = biological target: peripheral DA2 dopaminergic receptors (Oryctolagus cuniculus, UniProt G1T1Q0); experiment: Peripheral DA2 dopaminergic activity in electrically stimulated rabbit rectococcygeus muscle
Description: The activity of CHF 1024 and CHF 1035 on peripheral DA2 dopaminergic receptors has been tested in the electrically stimulated rabbit rectococcygeus muscle.

α2 adrenergic receptors = biological target: T1, α2 adrenergic receptors (Homo sapiens, UniProt P08913); experiment: α2 adrenergic receptor binding, [3H]-rauwolscine, human platelets; details: human platelets; read-out: IC50, 50% inhibition of [3H]-rauwolscine specific binding
T1 construct: from tissue; host or cells: human platelets
T1 sequence (P08913 1-465): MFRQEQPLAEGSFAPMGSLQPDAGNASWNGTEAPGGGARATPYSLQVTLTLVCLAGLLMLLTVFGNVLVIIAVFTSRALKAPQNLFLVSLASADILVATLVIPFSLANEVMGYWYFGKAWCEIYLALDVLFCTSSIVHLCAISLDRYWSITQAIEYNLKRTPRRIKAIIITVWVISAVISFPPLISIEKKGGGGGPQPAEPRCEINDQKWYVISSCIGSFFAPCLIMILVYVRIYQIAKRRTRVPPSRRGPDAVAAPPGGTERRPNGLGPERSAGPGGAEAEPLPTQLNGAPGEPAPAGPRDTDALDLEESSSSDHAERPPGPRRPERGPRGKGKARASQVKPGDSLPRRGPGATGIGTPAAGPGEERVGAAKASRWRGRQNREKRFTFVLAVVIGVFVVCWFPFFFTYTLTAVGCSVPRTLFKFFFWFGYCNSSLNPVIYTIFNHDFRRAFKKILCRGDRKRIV
Description: The antagonist [^3H]-rauwolscine was used as marker of the receptor, being its binding reversible, saturable and specific.

[5] = 5 mg, 140 minutes after administration (AD)
[6] = 5 mg, before administration (PD)
[7] = 10 mg, 140 minutes after administration (AD)
[8] = 10 mg, before administration (PD)
[9] = 15 mg, 140 minutes after administration (AD)
[10] = 15 mg, before administration (PD)

Chain of peripheral DA2 dopaminergic receptors (G1T1Q0 1-443): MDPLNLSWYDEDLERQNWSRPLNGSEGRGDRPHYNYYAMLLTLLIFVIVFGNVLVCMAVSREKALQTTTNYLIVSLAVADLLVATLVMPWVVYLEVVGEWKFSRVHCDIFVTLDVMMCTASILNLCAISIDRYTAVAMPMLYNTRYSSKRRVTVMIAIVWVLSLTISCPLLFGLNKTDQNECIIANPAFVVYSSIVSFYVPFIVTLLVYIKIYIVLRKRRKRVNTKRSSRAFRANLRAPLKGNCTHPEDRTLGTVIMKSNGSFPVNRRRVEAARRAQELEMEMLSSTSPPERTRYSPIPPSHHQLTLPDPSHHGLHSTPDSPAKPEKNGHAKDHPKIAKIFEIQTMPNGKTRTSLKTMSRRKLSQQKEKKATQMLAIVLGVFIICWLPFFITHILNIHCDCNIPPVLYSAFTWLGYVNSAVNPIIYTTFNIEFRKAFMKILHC

- IC50 (α2-adrenergic receptors; isolated neuronally-stimulated rat vas deferens, read-out: IC50, 50% inhibition of the electrically induced contraction): 0.0714 µM
- more potent than dopamine (α2-adrenergic receptors; rat vas deferens): ~70 times
- transformation by plasma and tissue esterases into the active desesterified form [3]: Immediately after the administration
- effect in presence of selective DA2-antagonist domperidone [4]: competitively antagonized
- more potent than dopamine [4]: approximately 3 times
- IC50 ([4]; read-out: IC50, 50% inhibition of the electrically induced contraction): 0.0296 µM
- IC50 (α2 adrenergic receptors): 27 µM
SMILES: CNC1CCc2c(ccc(OC(=O)C(C)C)c2OC(=O)C(C)C)C1 (centres unmarked) [CHF 1035, 5,6-Diisobutyroyloxy-2-methylaminotetralin]
- peak hypotensive effect after pretreatment with the β2-antagonist (anesthetized rats; 1 mg/kg i.d., ICI 118.551 0.2 mg/kg i.v. 10 min before): significantly reduced
- hypotensive response after both antagonists combined (anesthetized rats; 1 mg/kg i.d., ICI 118.551 and domperidone): completely abolished
- time to complete recovery of basal value after DA2-antagonist pretreatment (anesthetized rats; 1 mg/kg i.d., domperidone i.v. 10 min before, hypotensive response significantly shortened): 60 min
- hypotensive response, peak effect, reduction from basal value (anesthetized rats; 1 mg/kg intraduodenal, 5 min after administration): about 45%
- hypotensive response, reduction from basal value (anesthetized rats; 1 mg/kg intraduodenal, 2 hours after administration): about 20%
- blood pressure (anesthetized rats; intraduodenal, 1 mg/kg): markedly reduced
- heart rate (anesthetized rats; intraduodenal, 1 mg/kg): without affecting
- reduction in the peripheral vascular resistances ([1]; 5 mg): −15.4%
- adrenalin (E) plasmatic level [1, 5]: 42 pg/mL
- noradrenaline (NE) plasmatic level [1, 5]: 301 pg/mL
- cardiac index (CI) ([1]; 5 mg, after-dose (AD)): 3.4 L/min/m^2
- heart rate (HR) ([1]; 5 mg, after-dose (AD)): 78 bpm
- mean blood pressure (BPm) ([1]; 5 mg, after-dose (AD)): 82 mmHg
- pulmonary capillary wedge pressure (PCWP) ([1]; 5 mg, after-dose (AD)): 18 mmHg
- stroke volume index (SVI) ([1]; 5 mg, after-dose (AD)): 43 ml/min/m^2
- systemic vascular resistance (SVR) ([1]; 5 mg, after-dose (AD)): 1052 dyneseccm^−5
- adrenalin (E) plasmatic level [1, 6]: 56 pg/mL
- noradrenaline (NE) plasmatic level [1, 6]: 299 pg/mL
- cardiac index (CI) ([1]; 5 mg, pre-dose (PD)): 3 L/min/m^2
- heart rate (HR) ([1]; 5 mg, pre-dose (PD)): 74 bpm
- mean blood pressure (BPm) ([1]; 5 mg, pre-dose (PD)): 85 mmHg
- pulmonary capillary wedge pressure (PCWP) ([1]; 5 mg, pre-dose (PD)): 22 mmHg
- systemic vascular resistance (SVR) ([1]; 5 mg, pre-dose (PD)): 1243 dyneseccm^−5
- reduction in the peripheral vascular resistances ([1]; 10 mg): −27.0%
- adrenalin (E) plasmatic level [1, 7]: 62 pg/mL
- noradrenaline (NE) plasmatic level [1, 7]: 244 pg/mL
- cardiac index (CI) ([1]; 10 mg, after-dose (AD)): 3.4 L/min/m^2
- heart rate (HR) ([1]; 10 mg, after-dose (AD)): 76 bpm
- mean blood pressure (BPm) ([1]; 10 mg, after-dose (AD)): 77 mmHg
- pulmonary capillary wedge pressure (PCWP) ([1]; 10 mg, after-dose (AD)): 16 mmHg
- stroke volume index (SVI) ([1]; 10 mg, after-dose (AD)): 45 ml/min/m^2
- systemic vascular resistance (SVR) ([1]; 10 mg, after-dose (AD)): 1009 dyneseccm^−5
- adrenalin (E) plasmatic level [1, 8]: 65 pg/mL
- noradrenaline (NE) plasmatic level [1, 8]: 285 pg/mL
- cardiac index (CI) ([1]; 10 mg, pre-dose (PD)): 2.7 L/min/m^2
- heart rate (HR) ([1]; 10 mg, pre-dose (PD)): 70 bpm
- mean blood pressure (BPm) ([1]; 10 mg, pre-dose (PD)): 85 mmHg
- pulmonary capillary wedge pressure (PCWP) ([1]; 10 mg, pre-dose (PD)): 20 mmHg
- stroke volume index (SVI) ([1]; 10 mg, pre-dose (PD)): 38 ml/min/m^2
- systemic vascular resistance (SVR) ([1]; 10 mg, pre-dose (PD)): 1382 dyneseccm^−5
- reduction in the peripheral vascular resistances ([1]; 15 mg): −35.2%
- adrenalin (E) plasmatic level [1, 9]: 58 pg/mL
- noradrenaline (NE) plasmatic level [1, 9]: 308 pg/mL
- cardiac index (CI) ([1]; 15 mg, after-dose (AD)): 4 L/min/m^2
- heart rate (HR) ([1]; 15 mg, after-dose (AD)): 80 bpm
- mean blood pressure (BPm) ([1]; 15 mg, after-dose (AD)): 79 mmHg
- pulmonary capillary wedge pressure (PCWP) ([1]; 15 mg, after-dose (AD)): 16 mmHg
- stroke volume index (SVI) ([1]; 15 mg, after-dose (AD)): 49 ml/min/m^2
- systemic vascular resistance (SVR) ([1]; 15 mg, after-dose (AD)): 881 dyneseccm^−5
- adrenalin (E) plasmatic level [1, 10]: 53 pg/mL
- noradrenaline (NE) plasmatic level [1, 10]: 340 pg/mL
- cardiac index (CI) ([1]; 15 mg, pre-dose (PD)): 3 L/min/m^2
- heart rate (HR) ([1]; 15 mg, pre-dose (PD)): 74 bpm
- mean blood pressure (BPm) ([1]; 15 mg, pre-dose (PD)): 87 mmHg
- pulmonary capillary wedge pressure (PCWP) ([1]; 15 mg, pre-dose (PD)): 21 mmHg
- stroke volume index (SVI) ([1]; 15 mg, pre-dose (PD)): 40 ml/min/m^2
- systemic vascular resistance (SVR) ([1]; 15 mg, pre-dose (PD)): 1359 dyneseccm^−5
- increase in heart rate ([1]; 5, 10, 15 mg, only a relative increase): not clinically significant
- catecholamines plasmatic levels ([1]; during systemic vasodilation): without inducing any reflected increase
- diuresis [2]: increases
- natriuresis and kaliuresis [2]: without affecting
